SMILES strings stand for the structures. Read-outs that look alike come from different tables or passages of the source.

In data set [1] the test system is humans with elevated blood levels of phenylalanine (>600 μmol/L). The data set is described as follows: Open label single ascending oral dose study of 6R-BH4, blood Phe before and 24 hours after each dose. It is filed as in vivo. An excerpt: (§1) Criteria for inclusion in the study included (1) baseline blood Phe levels of >600 μmol/L, (2) age of at least 8 years. Criteria for exclusion from the study included (1) pregnancy or breastfeeding, (2) concurrent diseases or conditions that require medication or treatment, (3) concurrent treatment with any drug known to inhibit folate synthesis, and (4) treatment with any investigational drug within 30 days. Each of the patients also was identified as having a mutation in the phenylalanine hydroxylase (PAH) gene. Study subjects underwent baseline assessments, including medical history with assessment of phenylketonuria (PKU) or hyperphenylalaninemia (HPA) related signs and symptoms, physical examinations, vital signs, serum amino acid (i.e., phenylalanine, tyrosine, and tryptophan) blood levels, and routine laboratory tests (chemistry, hematology, and urinalysis) before inclusion in the study.
Within a maximum of 4 weeks following the completion of baseline assessments, eligible subjects began the first stage of the study. Single ascending doses of 10 mg/kg, 20 mg/kg and 40 mg/kg of 6R-BH4 were administered orally, with a washout period of at least 7 days between each dose, and subjects were monitored 24 hours after each dose. Subjects underwent a safety assessment and blood amino acid (i.e, phenylalanine, tyrosine, and tryptophan) level measurements before and 24 hours after each 6R-BH4 dose. Blood pressure was measured 30 minutes and 1 hour after each dose. Safety assessments included physical examinations, vital signs, serial assessment of PKU or HPA related signs and symptoms, recording of adverse events, and monitoring of changes in laboratory parameters (chemistry, hematology, and urinalysis). Subjects were instructed to continue their usual diet without any modification, and to record daily intake of food and beverages throughout the study.

For data set [2] the following is noted: Schircks dihydrochloride salt, oral tablets; cited from earlier work.
Data set [3] has as its system humans with elevated blood levels of phenylalanine (>600 μmol/L). The data set is described as follows: Multiple dose study (7-day loading test), 6R-BH4 daily for 7 days, blood Phe and tyrosine. It is filed as in vivo.
Description: as §1
After the first stage of the study was completed, subjects entered the second stage of the study, during which they received 10 mg/kg of 6R-BH4 daily in an oral dosage form, for a total of 7 days. After a washout period of at least 7 days, each subject received 20 mg/kg of 6R-BH4 daily for a total of 7 days. During the second stage of the study, subjects were monitored before dosing, at 24 and 72 hours after first dose, and on the 7th day of dosing at each of the two dose levels. Monitoring included a safety assessment as described above, measurement of serum blood amino acid (i.e, phenylalanine, tyrosine, and tryptophan) levels and evaluation of phenylalanine and tyrosine oral intake. Subjects were instructed to continue their usual diet without any modification, and to record daily intake of food and beverages throughout the study.
Of those 14 patients, 10 (71%) responded favorably to 10 mg/kg/day. […] The individual blood Phe responses to multiple doses of 10 mg/kg BH4 are shown in 11 adults (FIG. 17) and 9 children (FIG. 19). The individual blood Phe responses to multiple doses of 20 mg/kg BH4 are shown in 11 adults (FIG. 18) and in 9 children (FIG. 20).

The conditions of data set [4]: room temperature; cited from earlier work.
A short description of data set [5]: Storage stability of the polymorph form of BH4×2HCl, quality checked by HPLC. The conditions noted are these: minigrip bag, 40° C., 75% relative humidity. It is filed as physicochemical. As for the experimental part: The polymorph forms of BH4 described in the Moser Applications are a very stable crystalline form of the drug. The polymorph form can be easily filtered off, dried and ground to particle sizes desired for pharmaceutical formulations. These outstanding properties renders this polymorph form especially feasible for pharmaceutical application. The stability of the polymorph form of BH4 was determined after the BH4×2HCl (the polymorph form) had been stored for 8 months in a minigrip bag at 40° C. and 75% relative humidity. Quality was checked in different intervals throughout the 8 month period by HPLC.

For data set [6] the following is noted: for hygroscopicity / water adsorbed (content): dihydrochloride; for water adsorbed (content): released on heating at 10° C./minute.

Turning to `C[C@H](O)[C@H](O)[C@H]1CNc2nc(N)[nH]c(=O)c2N1` [6R-BH4, (6R)-5,6,7,8-tetrahydrobiopterin], the “blood Phe decline from baseline” value in data set [1] (single oral dose 10 mg/kg) is 10%±0.26%. In addition, the figures for the “blood Phe mean decline from baseline” value in data set [1] (single oral dose 20 mg/kg) and in data set [1] (single oral dose 40 mg/kg) were 17%±0.28% and 27%±0.25%, respectively. The half-life result in data set [2] is on record as “approximately 3.5 hours”. The “responders to 20 mg/kg who also responded to the lower dose (30% or greater reduction in blood Phe)” value in data set [3] (10 mg/kg/day, 10 of the 14 responders) stood at 71%. Moreover, in data set [3] (20 mg/kg daily, 14/20 patients), the “patients with sustained decrease in blood Phe concentration (responsive = decline of 30%)” value is listed as 70 % of the patients. Besides, the “increase in blood tyrosine from baseline, some patients” value in data set [3] (10 and 20 mg/kg daily, some but not all patients) is listed as more than 80%. Further, the shelf-life in data set [4] is less than 8 h.
Turning to `C[C@H](O)[C@H](O)[C@H]1CNc2nc(N)[nH]c(=O)c2N1.Cl.Cl` [BH4×2HCl, (6R)-L-erythro-tetrahydrobiopterin dihydrochloride], the “HPLC [% area]” value amounted to 98.4 % area in data set [5] (0 months (at the beginning)); 98.3 % area in data set [5] (after 1 month); 99.4 % area in data set [5] (after 1 week); 99.1 % area in data set [5] (after 3 months); 98.1 % area in data set [5] (after 8 months).
`C[C@H](O)[C@H](O)[C@H]1CNc2nc(N)[nH]c(=O)c2N1.Cl.Cl` [Form E, (6R)-L-erythro-tetrahydrobiopterin dihydrochloride]: the hygroscopicity entry in data set [6] is listed as “non-hygroscopic”.
In the case of `C[C@H](O)[C@H](O)[C@H]1CNc2nc(N)[nH]c(=O)c2N1.Cl.Cl` [Hydrate form C, (6R)-L-erythro-tetrahydrobiopterin dihydrochloride], in data set [6] (hydrate form C), the hygroscopicity result is given as “slightly hygroscopic”.
Take `C[C@H](O)[C@H](O)[C@H]1CNc2nc(N)[nH]c(=O)c2N1.Cl.Cl` [Polymorph A, (6R)-L-erythro-tetrahydrobiopterin dihydrochloride]: in data set [6], the hygroscopicity result is given as “slightly hygroscopic” and the “water adsorbed (content)” value was “about 3 percent by weight”. The “phase equilibration test of suspensions: form after filtration and air drying” value in data set [6] (tetrahydrofuran or tertiary-butyl methyl ether, five days and 18 hours respectively, under nitrogen, room temperature) is “unchanged polymorph form A”.
Turning to `C[C@H](O)[C@H](O)[C@H]1CNc2nc(N)[nH]c(=O)c2N1.Cl.Cl` [Polymorph B, (6R)-L-erythro-tetrahydrobiopterin dihydrochloride], the hygroscopicity result in data set [6] is recorded as “slightly hygroscopic”.
Consider `C[C@H](O)[C@H](O)[C@H]1CNc2nc(N)[nH]c(=O)c2N1.Cl.Cl` [Polymorph F, (6R)-L-erythro-tetrahydrobiopterin dihydrochloride], for which, in data set [6], the hygroscopicity result is “slightly hygroscopic” and the “water adsorbed (content)” value is on record as “about 3 percent by weight”.
The corresponding values for `C[C@H](O)[C@H](O)[C@H]1CNc2nc(N)[nH]c(=O)c2N1.Cl.Cl` [Polymorph K, (6R)-L-erythro-tetrahydrobiopterin dihydrochloride] are “slightly hygroscopic” and “about 2.0 percent by weight”.
Turning to `C[C@H](O)[C@H](O)[C@H]1CNc2nc(N)[nH]c(=O)c2N1.Cl.Cl` [hydrate D, (6R)-L-erythro-tetrahydrobiopterin dihydrochloride], the hygroscopicity result in data set [6] (hydrate form D) was “slightly hygroscopic”.
With `C[C@H](O)[C@H](O)[C@H]1CNc2nc(N)[nH]c(=O)c2N1.Cl.Cl` [polymorph J, (6R)-L-erythro-tetrahydrobiopterin dihydrochloride], in data set [6], the hygroscopicity entry is reported as “slightly hygroscopic”.

The values are drawn from patent US9433624B2, “Methods and compositions for the treatment of metabolic disorders” (BIOMARIN PHARMACEUTICAL INC., priority 2003, dated 2016).
